We go through eight molecules from ChEMBL document CHEMBL2202987, “Structure based medicinal chemistry approach to develop 4-methyl-7-deazaadenine carbocyclic nucleosides as anti-HCV agent” (Bioorg Med Chem Lett, 2012).

Data set [1] can be described thus: Cytotoxicity against human HuH7 cells by tetrazolium dye method. In kind it is cell-based, Huh-7.
Data set [2] concerns Hepatitis C virus. Nature of the data set: Antiviral activity against HCV infected in HuH7 cells after 3 days by luciferase reporter gene assay. The settings on record: Huh-7, 72 h. The data set is classed as functional, organism-based, Hepacivirus hominis. Background: A reporter such as luciferase makes a cellular process visible.

Structures are written as SMILES. Where only a bound is given, the exact number is not on record here.

By CC50 is commonly meant the concentration that lowers cell viability or growth by half. Lower therefore signals greater toxicity to the cells. As usually defined, the EC50 is the concentration giving half of the maximal effect. Low readings indicate higher potency in that assay, high ones lower potency in that assay. On to `CCCCn1c(=O)c2cc(OC)ccc2c2cc(C(O)(C(F)(F)F)C(F)(F)F)c(OC)cc21`, for which the CC50 in data set [1] is over 10 µM. Further, the EC50 in data set [2] is 0.17 µM.
Regarding `Cc1ncnc2c1ccn2[C@@H]1C=C(CO)[C@@H](O)[C@H]1O`, the CC50 in data set [1] is over 100 µM. Moreover, the EC50 in data set [2] is over 100 µM.
Molecule `Cc1ncnc2c1c(F)cn2[C@@H]1C=C(CO)[C@@H](O)[C@H]1O` had a CC50 in data set [1] of over 100 µM. Moreover, the EC50 in data set [2] was over 100 µM.
`Cc1ncnc2c1c(Cl)cn2[C@@H]1C=C(CO)[C@@H](O)[C@H]1O`: the half-maximal cytotoxic concentration (CC50) in data set [1] is over 100 µM. Further, the response in data set [2] was half-maximal at 41.7 µM (EC50).
`Cc1ncnc2c1c(Br)cn2[C@@H]1C=C(CO)[C@@H](O)[C@H]1O` came in with a CC50 in data set [1] of over 100 µM. The concentration giving a half-maximal response (EC50) in data set [2] was found to be 37.3 µM.
The matching figures for `Cc1ncnc2c1c(I)cn2[C@@H]1C=C(CO)[C@@H](O)[C@H]1O`: over 100 µM and 46.2 µM.
Consider `C=Cc1cn([C@@H]2C=C(CO)[C@@H](O)[C@H]2O)c2ncnc(C)c12`, for which, in data set [1], the 50% cytotoxic concentration (CC50) is 52.8 µM. A half-maximal effect in data set [2] (EC50) was put at 28 µM.
`C#Cc1cn([C@@H]2C=C(CO)[C@@H](O)[C@H]2O)c2ncnc(C)c12` had a CC50 in data set [1] of over 100 µM. The molecule also displayed an EC50 in data set [2] of 67.7 µM.
